Results reported in the supplement of paper PMC10307832.

Experiments:
Experiment in all cases: relative viability (nuclei count vs DMSO), 5 days (fraction); higher = more cells survive
LOU-NH91 = test system: LOU-NH91
Method in brief: (§1)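 Dosing by pin tool came one day after lung cancer cell lines were seeded in 1536-well plates, using either one drug or a fixed anchor-drug dose plus five library-drug doses (not always all listed) in √10 steps. After 5 days, nuclei were counted on 4× images. Relative viability is treated-well nuclei count divided by vehicle-well nuclei count, and values are medians of duplicate plates.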

NCI-H2087 = test system: NCI-H2087
Method in brief: as §1

HCC-366 = test system: HCC-366
Method in brief: as §1

SK-LU-1 = test system: SK-LU-1
Method in brief: as §1

HCC-827 = test system: HCC-827
Method in brief: as §1

NCI-H1993 = test system: NCI-H1993
Method in brief: as §1

NCI-H1437 = test system: NCI-H1437
Method in brief: as §1

HARA = test system: HARA
Method in brief: as §1

NCI-H1734 = test system: NCI-H1734
Method in brief: as §1

EKVX = test system: EKVX
Method in brief: as §1

BEN = test system: BEN
Method in brief: as §1

NCI-H647 = test system: NCI-H647
Method in brief: as §1

NCI-H661 = test system: NCI-H661
Method in brief: as §1

SK-MES-1 = test system: SK-MES-1
Method in brief: as §1

NCI-H522 = test system: NCI-H522
Method in brief: as §1

NCI-H2170 = test system: NCI-H2170
Method in brief: as §1

NCI-H1355 = test system: NCI-H1355
Method in brief: as §1

NCI-H1395 = test system: NCI-H1395
Method in brief: as §1

NCI-H2342 = test system: NCI-H2342
Method in brief: as §1

NCI-H1792 = test system: NCI-H1792
Method in brief: as §1

NCI-H2405 = test system: NCI-H2405
Method in brief: as §1

NCI-H2009 = test system: NCI-H2009
Method in brief: as §1

COc1cc2nccc(Oc3ccc(NC(=O)Nc4cc(C)on4)c(Cl)c3)c2cc1OC [Tivozanib] + Nc1nc2[nH]cc(CCc3ccc(C(=O)N[C@@H](CCC(=O)O)C(=O)O)cc3)c2c(=O)[nH]1 [Pemetrexed] (partner 0.2 µM)
relative viability (LOU-NH91; first compound 0.005 µM): 0.341 | relative viability (LOU-NH91; first compound 0.01581 µM): 0.364 | relative viability (LOU-NH91; first compound 0.05 µM): 0.371 | relative viability (LOU-NH91; first compound 0.1581 µM): 0.525 | relative viability (LOU-NH91; first compound 0.5 µM): 0.338 | relative viability (NCI-H2087; first compound 0.005 µM): 0.654 | relative viability (NCI-H2087; first compound 0.01581 µM): 0.696 | relative viability (NCI-H2087; first compound 0.05 µM): 0.66 | relative viability (NCI-H2087; first compound 0.1581 µM): 0.7 | relative viability (NCI-H2087; first compound 0.5 µM): 0.653 | relative viability (HCC-366; first compound 0.005 µM): 0.16 | relative viability (HCC-366; first compound 0.01581 µM): 0.192 | relative viability (HCC-366; first compound 0.05 µM): 0.162 | relative viability (HCC-366; first compound 0.1581 µM): 0.234 | relative viability (HCC-366; first compound 0.5 µM): 0.126 | relative viability (SK-LU-1; first compound 0.005 µM): 1 | relative viability (SK-LU-1; first compound 0.01581 µM): 0.928 | relative viability (SK-LU-1; first compound 0.05 µM): 0.997 | relative viability (SK-LU-1; first compound 0.1581 µM): 0.905 | relative viability (SK-LU-1; first compound 0.5 µM): 0.991 | relative viability (HCC-827; first compound 0.005 µM): 0.266 | relative viability (HCC-827; first compound 0.01581 µM): 0.255 | relative viability (HCC-827; first compound 0.05 µM): 0.242 | relative viability (HCC-827; first compound 0.1581 µM): 0.259 | relative viability (HCC-827; first compound 0.5 µM): 0.253 | relative viability (NCI-H1993; first compound 0.005 µM): 0.572 | relative viability (NCI-H1993; first compound 0.01581 µM): 0.467 | relative viability (NCI-H1993; first compound 0.05 µM): 0.674 | relative viability (NCI-H1993; first compound 0.1581 µM): 0.499 | relative viability (NCI-H1993; first compound 0.5 µM): 0.662 | relative viability (NCI-H1437; first compound 0.005 µM): 0.251 | relative viability (NCI-H1437; first compound 0.01581 µM): 0.287 | relative viability (NCI-H1437; first compound 0.05 µM): 0.366 | relative viability (NCI-H1437; first compound 0.1581 µM): 0.313 | relative viability (NCI-H1437; first compound 0.5 µM): 0.31 | relative viability (HARA; first compound 0.005 µM): 0.275 | relative viability (HARA; first compound 0.01581 µM): 0.259 | relative viability (HARA; first compound 0.05 µM): 0.249 | relative viability (HARA; first compound 0.1581 µM): 0.243 | relative viability (HARA; first compound 0.5 µM): 0.245 | relative viability (NCI-H1734; first compound 0.005 µM): 0.426 | relative viability (NCI-H1734; first compound 0.01581 µM): 0.39 | relative viability (NCI-H1734; first compound 0.05 µM): 0.404 | relative viability (NCI-H1734; first compound 0.1581 µM): 0.402 | relative viability (NCI-H1734; first compound 0.5 µM): 0.404 | relative viability (EKVX; first compound 0.005 µM): 0.377 | relative viability (EKVX; first compound 0.01581 µM): 0.408 | relative viability (EKVX; first compound 0.05 µM): 0.394 | relative viability (EKVX; first compound 0.1581 µM): 0.432 | relative viability (EKVX; first compound 0.5 µM): 0.355 | relative viability (BEN; first compound 0.005 µM): 0.647 | relative viability (BEN; first compound 0.01581 µM): 0.858 | relative viability (BEN; first compound 0.05 µM): 0.834 | relative viability (BEN; first compound 0.1581 µM): 0.397 | relative viability (BEN; first compound 0.5 µM): 0.689 | relative viability (NCI-H647; first compound 0.005 µM): 0.155 | relative viability (NCI-H647; first compound 0.01581 µM): 0.207 | relative viability (NCI-H647; first compound 0.05 µM): 0.152 | relative viability (NCI-H647; first compound 0.1581 µM): 0.189 | relative viability (NCI-H647; first compound 0.5 µM): 0.149 | relative viability (NCI-H661; first compound 0.005 µM): 0.887 | relative viability (NCI-H661; first compound 0.01581 µM): 0.928 | relative viability (NCI-H661; first compound 0.05 µM): 0.922 | relative viability (NCI-H661; first compound 0.1581 µM): 0.909 | relative viability (NCI-H661; first compound 0.5 µM): 0.854 | relative viability (SK-MES-1; first compound 0.005 µM): 0.89 | relative viability (SK-MES-1; first compound 0.01581 µM): 0.956 | relative viability (SK-MES-1; first compound 0.05 µM): 1.13 | relative viability (SK-MES-1; first compound 0.1581 µM): 0.948 | relative viability (SK-MES-1; first compound 0.5 µM): 0.994 | relative viability (NCI-H522; first compound 0.005 µM): 1.03 | relative viability (NCI-H522; first compound 0.01581 µM): 1.1 | relative viability (NCI-H522; first compound 0.05 µM): 1.04 | relative viability (NCI-H522; first compound 0.1581 µM): 0.824 | relative viability (NCI-H522; first compound 0.5 µM): 1.15 | relative viability (NCI-H2170; first compound 0.005 µM): 0.24 | relative viability (NCI-H2170; first compound 0.01581 µM): 0.262 | relative viability (NCI-H2170; first compound 0.05 µM): 0.56 | relative viability (NCI-H2170; first compound 0.5 µM): 0.255 | relative viability (NCI-H1355; first compound 0.005 µM): 1.03 | relative viability (NCI-H1355; first compound 0.01581 µM): 1.01 | relative viability (NCI-H1355; first compound 0.05 µM): 1.04 | relative viability (NCI-H1355; first compound 0.1581 µM): 0.763 | relative viability (NCI-H1355; first compound 0.5 µM): 1.07 | relative viability (NCI-H1395; first compound 0.005 µM): 0.89 | relative viability (NCI-H1395; first compound 0.01581 µM): 1.02 | relative viability (NCI-H1395; first compound 0.05 µM): 0.938 | relative viability (NCI-H1395; first compound 0.1581 µM): 0.775 | relative viability (NCI-H1395; first compound 0.5 µM): 0.579 | relative viability (NCI-H2342; first compound 0.005 µM): 0.753 | relative viability (NCI-H2342; first compound 0.01581 µM): 0.754 | relative viability (NCI-H2342; first compound 0.05 µM): 0.802 | relative viability (NCI-H2342; first compound 0.5 µM): 0.757 | relative viability (NCI-H1792; first compound 0.005 µM): 0.865 | relative viability (NCI-H1792; first compound 0.01581 µM): 0.792 | relative viability (NCI-H1792; first compound 0.05 µM): 1.02 | relative viability (NCI-H1792; first compound 0.5 µM): 1 | relative viability (NCI-H2405; first compound 0.005 µM): 1.05 | relative viability (NCI-H2405; first compound 0.01581 µM): 1.13 | relative viability (NCI-H2405; first compound 0.05 µM): 1.09 | relative viability (NCI-H2405; first compound 0.1581 µM): 1.01 | relative viability (NCI-H2405; first compound 0.5 µM): 0.792 | relative viability (NCI-H2009; first compound 0.005 µM): 0.994 | relative viability (NCI-H2009; first compound 0.01581 µM): 1.04 | relative viability (NCI-H2009; first compound 0.05 µM): 0.995 | relative viability (NCI-H2009; first compound 0.1581 µM): 1.06 | relative viability (NCI-H2009; first compound 0.5 µM): 0.933
